# Results reported in patent US5830855A, “Lipodepsipeptides as antifungal and fungicidal agents” (priority 1996, dated 1998).
# Numbered stars: 1 amine (or outer) side, 2 acyl side, 3 side chain; on linkers, the order of the positions; unused ones are H or OH. Bridge positions count the residues as written; N and C are the ends. Square brackets hold non-standard residues; d marks the D form. Peptide text beside a SMILES is read from it. * marks the point of attachment. ξ: configuration not given here. Asp(3S-OH) = N[C@H](C(=O)O)[C@H](O)C(=O)O; Thr(4-Cl) = N[C@H](C(=O)O)[C@H](O)CCl; ξAsp(3ξ-OH) = NC(C(=O)O)C(O)C(=O)O; X3 = O=C(C(N[*:1])C(O)CCl)[*:2]; X1 = CCCCCCCCC[C@@H](O)CC(=O)*; X2 = CCCCCCCCCCCC(O)CC(=O)*; dDab = NCC[C@@H](N)C(=O)O; Dab = NCC[CH](N)C(=O)O; Orn = NCCC[CH](N)C(=O)O; hSer = N[CH](CCO)C(=O)O; Dhb = C/C=C(\N)C(=O)O
# Key:
# Type in all cases: cell-based
# Candida krusei [1] = experiment: Minimum Fungicidal Concentration (MFC); conditions: Table 2, 2 isolates, 24 hr
# Method: (§1) Medium: Liquid RPMI 1640 (RPMI) medium with L-glutamine and without sodium bicarbonate (Sigma Chemical Co., R-6504; St. Louis, Mo.) buffered with 0.165M MOPS (34.54 g/liter) was used for in vitro antifungal tests. The medium was adjusted to pH 7.0 with 10M NaOH and filter sterilized.
# (§2) Lipodepsipeptide Dilutions: All stock drug solution concentrations were at least 10-fold higher than the highest concentration tested. AmB, ketoconazole, and the test compounds (SR-E, ST-B, and SS-A) were dissolved in sterile distilled water, 0.2N HCl, and 0.001N HCl, respectively. Each stock solution was diluted to 2× the highest concentration of drug tested with RPMI. Two-fold dilutions were made with RPMI medium.
# (§3) Preparation of Inoculum Suspensions: On Sabouraud dextose agar (SDA; BBL, Becton and Dickinson and Co., Cockeysville, Md.) all isolates were subcultured at least twice before use to ensure purity and viability. Candida spp. and Saccharomyces cerevisiae were grown for 24 hr at 35° C. Isolates of Cryptococcus neoformans were grown for 48 hr at 35° C. Yeast cells from at least five 1-mm-diameter colonies were suspended in 5 ml of sterile 0.85% saline. The resulting suspension was vortexed for 15 sec. The turbidity of each mixed suspension was measured at 530 nm and adjusted to 1×10^6 to 5×10^6 CFU/ml by the NCCLS spectrophotometric method described by National Committee for Clinical Laboratory Standards. 1992. Reference method for broth dilution antifungal susceptibility testing of yeasts; proposed standard, NCCLS document M27-P (ISBN 1-56238-186-5). NCCLS, Villanova. The final transmission of each yeast suspension ranged from 85-87%.
# (§4) Aspergillus fumigatus and Mucor spp. were grown for 1 wk at 35° C. The dermatophytes, Microsporum spp. and Trichophyton spp., were grown for two wk at 30° C. Fungal spores were washed from the plates of all good spore formers (A. fumigatus, Mucor spp., Microsporum canis and Trichophyton spp.) by placing 5 ml of 0.85% saline with 0.2% Tween 80 on the plates and mixing with an inoculating loop. The spore/mycelium suspension was drawn off with a pipette and allowed to settle for at least 5 min. For the poor spore-forming Microsporum audouinii, the procedure was the same except the spore/mycelial suspension was homogenized with a ground glass tissue homogenizer and then allowed to settle for at least 5 min. A small amount of the supernatant was transferred to 5 ml of sterile saline and vortexed. The stock suspensions of all filamentous fungi were measured at 530 nm and adjusted to 85-87% transmission. The concentration (1×10^6 to 5×10^6 CFU/ml) was determined by hemacytometer count or plate count on SDA. All stock suspensions were diluted 1000-fold with RPMI, or 2× the final desired test inocula. The 2× inoculum was diluted 1:1 when the wells were inoculated, and the desired inoculum size was achieved.
# (§5) Broth Microdilution Test: Broth microdilution tests were performed using sterile, disposable, multiwell microdilution plates (96 round U-bottom wells) (Falcon 3077; Becton and Dickinson Labware, Lincoln Park, N.J.). The drugs (2× concentrations) were dispensed into the wells of rows number 1 to 10 of the microdilution plates in 100 μl volumes from highest drug concentration to lowest drug concentration. Each well was inoculated with 100 μl of the corresponding 2× concentrated fungal suspension. The wells of row 11 contained the inoculum with drug-free media as a positive growth control and the wells of row 12 contained uninoculated-drug-free medium as a sterility control.
# (§6) Incubation and Scoring of MIC: All cultures were incubated without shaking at the temperature used during subculture. Incubation times were 48 hr for Candida spp., S. cerevisiae, A. fumigatus, and Mucor spp; 72 hr for C. neoformans; and 7 days for Microsporum and Trichophyton spp. […]
# Candida kefyr [2] = experiment: Minimum Fungicidal Concentration (MFC); conditions: Table 2, 1 isolate, 24 hr
# Method: as §1, §2, §3, §4, §5, §6
# Cryptococcus neoformans [3] = experiment: Minimum Fungicidal Concentration (MFC); conditions: Table 2, 14 isolates, 48 hr
# Method: as §1, §2, §3, §4, §5, §6
# Candida rugosa [4] = experiment: Minimum Fungicidal Concentration (MFC); conditions: Table 2, 2 isolates, 24 hr
# Method: as §1, §2, §3, §4, §5, §6
# Trichophyton spp. [5] = experiment: Minimum Fungicidal Concentration (MFC); conditions: Table 2, 3 isolates, 7 d
# Method: as §1, §2, §3, §4, §5, §6
# Candida albicans [6] = experiment: Minimum Fungicidal Concentration (MFC); conditions: Table 2, 20 isolates, subculture on drug-free SDA 24 hr
# Method: as §1, §2, §3, §4, §5, §6
# Candida lusitaniae [7] = experiment: Minimum Fungicidal Concentration (MFC); conditions: Table 2, 2 isolates, 24 hr
# Method: as §1, §2, §3, §4, §5, §6
# Saccharomyces cerevisiae [8] = experiment: Minimum Fungicidal Concentration (MFC); conditions: Table 2, 1 strain tested more than once, 24 hr
# Method: as §1, §2, §3, §4, §5, §6
# Candida parapsilosis [9] = experiment: Minimum Fungicidal Concentration (MFC); conditions: Table 2, 2 isolates, 24 hr
# Method: as §1, §2, §3, §4, §5, §6
# Microsporum spp. [10] = experiment: Minimum Fungicidal Concentration (MFC); conditions: Table 2, 2 isolates, 7 d
# Method: as §1, §2, §3, §4, §5, §6
# Candida tropicalis [11] = experiment: Minimum Fungicidal Concentration (MFC); conditions: Table 2, 2 isolates, 24 hr
# Method: as §1, §2, §3, §4, §5, §6
# Candida krusei [12] = experiment: Broth microdilution MIC; conditions: Table 1 (MICs), 2 isolates, 48 hr
# Method: as §1, §2, §3, §4, §5, §6
# Candida kefyr [13] = experiment: Broth microdilution MIC; conditions: Table 1 (MICs), 1 isolate, 48 hr
# Method: as §1, §2, §3, §4, §5, §6
# Cryptococcus neoformans [14] = experiment: Broth microdilution MIC; conditions: for MIC range: Table 1 (MICs), Cryptococcus neoformans, 14 isolates, 72 hr
# Method: as §1, §2, §3, §4, §5, §6
# Candida rugosa [15] = experiment: Broth microdilution MIC; conditions: Table 1 (MICs); Candida rugosa, 2 isolates; 48 hr
# Method: as §1, §2, §3, §4, §5, §6
# Trichophyton spp. [16] = experiment: Broth microdilution MIC; conditions: Table 1 (MICs), 3 isolates, 7 days
# Method: as §1, §2, §3, §4, §5, §6
# Candida albicans [17] = experiment: Broth microdilution MIC; conditions: Table 1 (MICs); Candida albicans, 20 isolates; RPMI pH 7.0, 48 hr; Ktz read at score 2, others at score 0
# Method: as §1, §2, §3, §4, §5, §6
# Candida lusitaniae [18] = experiment: Broth microdilution MIC; conditions: Table 1 (MICs), 2 isolates, 48 hr
# Method: as §1, §2, §3, §4, §5, §6
# Saccharomyces cerevisiae [19] = experiment: Broth microdilution MIC; conditions: Table 1 (MICs), 1 strain tested more than once (control ATCC 36375), 48 hr
# Method: as §1, §2, §3, §4, §5, §6
# Candida parapsilosis [20] = experiment: Broth microdilution MIC; conditions: Table 1 (MICs), 2 isolates, 48 hr
# Method: as §1, §2, §3, §4, §5, §6
# Aspergillus fumigatus = experiment: Broth microdilution MIC; conditions: Table 1 (MICs), 16 isolates, 48 hr
# Method: as §1, §2, §3, §4, §5, §6
# Microsporum spp. [21] = experiment: Broth microdilution MIC; conditions: Table 1 (MICs), 2 isolates, 7 days
# Method: as §1, §2, §3, §4, §5, §6
# Candida tropicalis [22] = experiment: Broth microdilution MIC; conditions: Table 1 (MICs); Candida tropicalis, 2 isolates; 48 hr
# Method: as §1, §2, §3, §4, §5, §6
smiles,measurement,setting,value
"C/C=C1\NC(=O)C(C(C)O)NC(=O)C(CCCN)NC(=O)C(CCO)NC(=O)CNC(=O)C(CCN)NC(=O)C(NC(=O)CC(O)CCCCCCCCCCC)COC(=O)C(C(O)CCl)NC(=O)C(C(O)C(=O)O)NC1=O (centres unmarked) [ST-B, Syringotoxin B] (X2-S[Dab]G[hSer][Orn]T[Dhb][ξAsp(3ξ-OH)][X3]; ester 1-C; configuration not given here)",MFC (μg/ml) range,Candida krusei [1],12.5 to 50 µg/mL
same,MFC (μg/ml) range,Candida kefyr [2],3.2 µg/mL
same,MFC (μg/ml) range,Cryptococcus neoformans [3],0.8 to 12.5 µg/mL
same,MFC (μg/ml) range,Candida rugosa [4],6.25 to 50 µg/mL
same,MFC (μg/ml) range,Trichophyton spp. [5],25 to 200 µg/mL
same,MFC (μg/ml) range,Candida albicans [6],3.2 to 12.5 µg/mL
same,MFC (μg/ml) range,Candida lusitaniae [7],6.25 to 12.5 µg/mL
same,MFC (μg/ml) range,Saccharomyces cerevisiae [8],12.5 to 25 µg/mL
same,MFC (μg/ml) range,Candida parapsilosis [9],12.5 to 25 µg/mL
same,MFC (μg/ml) range,Microsporum spp. [10],25 to 200 µg/mL
same,MFC (μg/ml) range,Candida tropicalis [11],12.5 µg/mL
same,MIC (μg/ml) range,Candida krusei [12],12.5 to 25 µg/mL
same,MIC (μg/ml) range,Candida kefyr [13],3.2 µg/mL
same,MIC range,Cryptococcus neoformans [14],0.8 to 6.25 µg/mL
same,"MIC, one strain of C. neoformans","Cryptococcus neoformans [14]; one strain of C. neoformans, very sensitive to ST-B, somewhat resistant to AmB",0.8 µg/mL
same,MIC range,Candida rugosa [15],3.2 to 25 µg/mL
same,MIC range,Trichophyton spp. [16],25 to 200 µg/mL
same,MIC range,Candida albicans [17],3.2 to 12.5 µg/mL
same,MIC range,Candida lusitaniae [18],6.25 µg/mL
same,MFC (μg/ml) range,Saccharomyces cerevisiae [19],6.25 µg/mL
same,MIC range,Candida parapsilosis [20],6.25 to 12.5 µg/mL
same,MIC range,Aspergillus fumigatus,6.25 to 25 µg/mL
same,MIC range,Microsporum spp. [21],25 to 200 µg/mL
same,MIC (μg/ml) range,Candida tropicalis [22],3.2 µg/mL
"C/C=C1\NC(=O)[C@H](Cc2ccccc2)NC(=O)[C@H](CCCN=C(N)N)NC(=O)[C@@H](CCN)NC(=O)[C@H](CCN)NC(=O)[C@@H](CO)NC(=O)[C@@H](NC(=O)C[C@H](O)CCCCCCCCC)COC(=O)[C@H]([C@H](O)CCl)NC(=O)[C@H]([C@H](O)C(=O)O)NC1=O [SR-E, Syringomycin-E] (X1-S[dS][Dab][dDab]RF[Dhb][Asp(3S-OH)][Thr(4-Cl)]; ester 1-C)",MFC (μg/ml) range,Candida krusei [1],10 µg/mL
same,MFC (μg/ml) range,Candida kefyr [2],2.5 µg/mL
same,MFC (μg/ml) range,Cryptococcus neoformans [3],2.5 to 10 µg/mL
same,MFC (μg/ml) range,Candida rugosa [4],10 to 20 µg/mL
same,MFC (μg/ml) range,Trichophyton spp. [5],6.25 to 25 µg/mL
same,MFC (μg/ml) range,Candida albicans [6],2.5 to 5 µg/mL
same,MFC (μg/ml) range,Candida lusitaniae [7],2.5 to 5 µg/mL
same,MFC (μg/ml) range,Saccharomyces cerevisiae [8],2.5 µg/mL
same,MFC (μg/ml) range,Candida parapsilosis [9],2.5 µg/mL
same,MFC (μg/ml) range,Microsporum spp. [10],6.25 to 12.5 µg/mL
same,MFC (μg/ml) range,Candida tropicalis [11],5 µg/mL
same,MIC (μg/ml) range,Candida krusei [12],10 µg/mL
same,MIC (μg/ml) range,Candida kefyr [13],2.5 µg/mL
same,MIC range,Cryptococcus neoformans [14],2.5 to 10 µg/mL
same,MIC range,Candida rugosa [15],5 to 20 µg/mL
same,MIC range,Trichophyton spp. [16],3.1 to 6.25 µg/mL
same,MIC range,Candida albicans [17],2.5 to 5 µg/mL
same,MIC range,Candida lusitaniae [18],2.5 µg/mL
same,MFC (μg/ml) range,Saccharomyces cerevisiae [19],2.5 µg/mL
same,MIC range,Candida parapsilosis [20],2.5 µg/mL
same,MIC range,Aspergillus fumigatus,10 to 20 µg/mL
same,MIC range,Microsporum spp. [21],6.25 to 12.5 µg/mL
same,MIC (μg/ml) range,Candida tropicalis [22],2.5 to 5 µg/mL
